These results are taken from publication PMC9437101, “Curcumin-based-fluorescent probes targeting ALDH1A3 as a promising tool for glioblastoma precision surgery and early diagnosis” (Communications Biology, 2022).

SMILES strings stand for the structures. Where “and” joins values, the source holds several entries; their conditions need not be identical. Equal values may be shown once.

Data set [1] in a line: LC-HRMS analysis, enzymatic assay buffer + probe without enzyme. To be noted: 1 h. The procedure:
These analyses were carried out by using UPLC-HRMS procedure with Vanquish UPLC system coupled to a Thermo Scientific Q-Exactive Plus, operating in negative electrospray ionization mode. The chromatographic separation was carried out using a Phenomenex Synergi 4 µ Polar-RP 80 A (150 × 2 mm) equipped with a Phenomenex Polar-RP (4 mm × 2 mm) security guard column. The mobile phase consisted of A: acetonitrile 0.1% formic acid and B: 0.1% formic acid. We used a linear elution gradient, starting from 80% of A to 5% A in 3 min, 3 min at 5% A, an equilibration of 4 min for a total run time of 10.00 min, at 300 µl/min flow rate. The autosampler temperature was set at 15 °C, the injection volume was 5 µl and column was maintained at 40 °C. […] Before injecting the samples, the blanks in the list were analyzed and every biological sample was analyzed in duplicate. The biological samples analyzed were as follow: (1) Enzymatic assay Buffer; (2) Enzymatic assay Buffer + NAD^+; (3) Enzymatic assay Buffer + Probe 10 or Probe 11; (4) Enzymatic assay Buffer + ALDH1A1; (5) Enzymatic assay Buffer + ALDH1A2; (6) Enzymatic assay Buffer + ALDH1A3; (7) Enzymatic assay Buffer + ALDH1A1 + Probe 10 or Probe 11; (8) Enzymatic assay Buffer + ALDH1A2 + Probe 10 or Probe 11; (9) Enzymatic assay Buffer + ALDH1A3 + Probe 10 or Probe 11. […]

For data set [2], the system named is patient-derived glioma cell 3054. As to the kind of experiment: Fluorescent microscopy of probe in cells. Format: cell-based, human. As to conditions: 10 µM.
Data set [3] concerns patient-derived glioma cell 3060. As to the kind of experiment: Fluorescent microscopy of probe in cells. It counts as cell-based, human. To be noted: 10 µM.
Data set [4] concerns HEK293T cells. As to the kind of experiment: Fluorescent microscopy of probe in cells. Format: cell-based, human. As to conditions: 10 µM, 2 h (Fig. 5g). How it is done: In total, 20,000 cells/ml of U87MG, HEK293T, hASTRO and 4T1 were seeded onto glass cover slips in 24-well plates. The cells incubated at 37 °C in a 5% CO2 atmosphere overnight. Cells were washed with 1 ml of PBS buffer two times, then a 10 μM solution of probes was added to each well for 2 h. For nuclei staining, 1 µg/ml of DAPI was added the last 15 min of treatment. The cover slips were removed and washed with PBS buffer, and fixed with 0.5 ml of 4% formaldehyde solution for 10 min. The cover slips were washed with 1 ml of PBS, then slides were prepared using Mounting Media (Merck Life Science). Fluorescence images were acquired using a Leica THUNDER Imager 3D Live Cell (Leica Microsystems, Wetzlar, Germany) microscope equipped with an S Fluor 40×/1.3 objective using the LAS X software.

The nature of data set [5]: Cell viability (MTT assay). It counts as cell-based, murine. To be noted: mouse, 4T1 mammary carcinoma cells. How it is done: (§1) In total, 10 × 10^5 U87MG human glioblastoma, patient-derived glioma cells 3054 and 3060, HEK293T human embryonic kidney, 4T1 murine mammary carcinoma, human fetal astrocytes cell lines were plated in their respective medium and treated for 72 h with our fluorescent probe 10 and 11, solubilized in DMSO in a final concentration of […]. We treated controls with DMSO in the same final concentration and we compared the viability of each treatment to controls. The viability of cells was measured using the 3-(4,5-dimethylthiazol-2-yl)-2,5-diphenyltetrazolium assay (MTT assay)[23].

The subject of data set [6] is 4T1 murine mammary carcinoma. As to the kind of experiment: Cell viability (MTT assay). Format: cell-based. As to conditions: 10uM, 72 h. The procedure:
as §1

Data set [7] relates to U87MG, 3054, 3060, HEK293T, 4T1, human fetal astrocytes. As to the kind of experiment: Cell viability (MTT assay), all cell lines of Fig. 6a. As to conditions: 10 µM, 72 h. It counts as cell-based. How it is done:
as §1

In the case of `COc1cc(/C=C/C(O)=C/C(=O)/C=C/c2ccc(OCc3cn(CCOc4ccc(C=O)cc4)nn3)c(OC)c2)ccc1O` [Probe 10], the “AREA TIC of Probe 10” value in data set [1] was 9480149 and 10113371 and 16727419 and 14473716. Moreover, the “fluorescence in cells” value in data set [2] (2 h) and in data set [3] (2 h) was “can determine fluorescence” each time. For the same molecule, the “If ROI” value in data set [2] (3054, 2 h (Fig. 5g)) is 223.52 a.u. and 222.87 a.u. and 254.268 a.u. and 245.65 a.u. and 230.548 a.u; in data set [3] (3060, 2 h (Fig. 5g)), 254.68 a.u. and 232.45 a.u. and 200.36 a.u. and 210.52 a.u. and 200.45 a.u; in data set [4] it was 64.441 a.u. and 43.961 a.u. and 59.771 a.u. and 72.091 a.u. and 46.461 a.u. The molecule further registered a viability at 72 h, 10 µM in data set [5] of 83.6%. Moreover, the “% cell viability” value in data set [6] was 86.9788% and 85.5694% and 83.5736% and 83.6921% and 86.8788% and 85.6693% and 83.8736%. The “cell mortality” value in data set [7] is “unable to induce cell mortality”.
